In patent US9238796B2, “Cell growth-promoting peptide and use thereof” (TOAGOSEI CO., LTD., priority 2010, dated 2016):
No end group written: not given here.

Tests used:
[1] = system: Rat bone marrow-derived stem cells (mesenchymal stem cells); assay: Evaluation of cell growth-promoting activity, WST-8 colorimetric method (Example 5); type: cell-based; details: WST-8 absorbance at 450 nm, peptide approximately 2 μM, bFGF 10 ng/mL; for OD450 at the start of cultivation: day 0; for OD450 after 4 days: day 4
Method: (§1) Experimental sections were set up that used the cell growth-promoting peptides obtained in Example 4 (samples 22 to 42) as a cell growth promoter and that used a commercially available bFGF as a cell growth promoter as a comparative example. For the control, a peptide-free section (the bFGF was also not added) was set up.
(§2) The details of the evaluation testing are provided below. Each synthesized sample peptide was dissolved in PBS (phosphate-buffered physiological saline) to prepare a stock solution with a peptide concentration of 1 mM.
(§3) Rat bone marrow-derived stem cells (mesenchymal stem cells) were used as the test cells. Specifically, the test stem cells were cultured by passage on Dulbecco's MEM medium (DMEM medium: Gibco product) containing 10% fetal bovine serum (FBS: Gibco product), 2 mM of L-glutamine, 50 unit/mL of penicillin, and 50 μg/mL of streptomycin. From the second passage to the fourth passage (passages 2 to 4) were used in this evaluation testing.
(§4) Thus, the test stem cells were preliminarily recovered by treatment with a 0.05% trypsin-0.53 mM EDTA solution; a test stem cell solution, prepared with the DMEM medium containing 10 ng/mL of bFGF to provide 1×10^4 cells/mL, was seeded to each well of a 96-well plate to provide a cell count of 1×10^3 per well; and pre-cultivation was carried out overnight. The amount of medium was brought to 100 μL per well for this.
(§5) The medium in each well was then exchanged for fresh medium to which a stock solution of a peptide selected from sample 22 to 42 had been added, so as to give a concentration of the peptide in each well of approximately 2 μM. For comparison, in some wells the medium in the well was exchanged for fresh medium to which a commercially available bFGF (product of PeproTech) had been added to give a concentration of 10 ng/mL (the bFGF experimental section in Table 6).
(§6) After the addition of the sample peptide or bFGF as indicated above, the 96-well plate was placed in a CO2 incubator and cultivation at quiescence was carried out at 37° C. under 5% CO2. Medium exchange was performed every other day. The exchange medium was the same as that used at the start of cultivation (i.e., the same sample peptide or bFGF was also added to the exchange medium as in the sample peptide addition section or bFGF addition section).
During this cultivation test, a “water-soluble tetrazolium salt (WST-8)” was added as a chromogenic reagent to some wells at the start of cultivation (day 0) and at four days after the start of cultivation (day 4). After incubation for 2 hours after the addition, the cell culture fluid to which the chromogenic reagent had been added was recovered. The extent of cell growth was evaluated by a colorimetric method in which, based on reduction of the tetrazolium salt, the absorbance (OD450) at a wavelength of 450 nm was measured.

[2] = system: Rat bone marrow-derived stem cells (mesenchymal stem cells); assay: Evaluation of cell growth-promoting activity, WST-8 colorimetric method (Example 2); type: cell-based; details: WST-8 absorbance at 450 nm, peptide approximately 2 μM, bFGF 10 ng/mL; for OD450 at the start of cultivation: day 0; for OD450 after 2 days: day 2; for OD450 after 4 days: day 4
Method: as §1, with “1” for “4”, “1” for “22”, “21)” for “42)”
as §2, §3, §4
as §5, with “1” for “22”, “21” for “42”, “3).” for “6).”
as §6
During this cultivation test, a “water-soluble tetrazolium salt (WST-8)” was added as a chromogenic reagent to some wells at the start of cultivation (day 0), at two days after the start of cultivation (day 2), and at four days after the start of cultivation (day 4). After incubation for 2 hours after the addition, the cell culture fluid to which the chromogenic reagent had been added was recovered. The extent of cell growth was evaluated by a colorimetric method in which, based on reduction of the tetrazolium salt, the absorbance (OD450) at a wavelength of 450 nm was measured.

| Sequence | OD450 at the start of cultivation [1] | OD450 after 4 days [1] | OD450 at the start of cultivation [2] | OD450 after 2 days [2] | OD450 after 4 days [2] |
| --- | --- | --- | --- | --- | --- |
| AAWTARAGKKRTLRKNDRKKR (AAWTARAGKKRTLRKNDRKKR-NH2) [compound 31] | 0.051 | 0.401 | – | – | – |
| AAWTVRAGKKRTLRKNDRKKR (AAWTVRAGKKRTLRKNDRKKR-NH2) [compound 10] | – | – | 0.058 | 0.149 | 0.389 |
| ALLLLAAWTARAGKKRTLRKNDRKKR (ALLLLAAWTARAGKKRTLRKNDRKKR-NH2) [compound 26] | 0.051 | 0.509 | – | – | – |
| ALLLLAAWTVRAGKKRTLRKNDRKKR (ALLLLAAWTVRAGKKRTLRKNDRKKR-NH2) [compound 5] | – | – | 0.058 | 0.189 | 0.483 |
| AWTARAGKKRTLRKNDRKKR (AWTARAGKKRTLRKNDRKKR-NH2) [compound 32] | 0.051 | 0.433 | – | – | – |
| AWTVRAGKKRTLRKNDRKKR (AWTVRAGKKRTLRKNDRKKR-NH2) [compound 11] | – | – | 0.058 | 0.169 | 0.403 |
| GLALLLLAAWTARAGKKRTLRKNDRKKR (GLALLLLAAWTARAGKKRTLRKNDRKKR-NH2) [compound 24] | 0.051 | 0.327 | – | – | – |
| LAAWTARAGKKRTLRKNDRKKR (LAAWTARAGKKRTLRKNDRKKR-NH2) [compound 30] | 0.051 | 0.413 | – | – | – |
| LAAWTVRAGKKRTLRKNDRKKR (LAAWTVRAGKKRTLRKNDRKKR-NH2) [compound 9] | – | – | 0.058 | 0.179 | 0.398 |
| LALLLLAAWTARAGKKRTLRKNDRKKR (LALLLLAAWTARAGKKRTLRKNDRKKR-NH2) [compound 25] | 0.051 | 0.319 | – | – | – |
| LALLLLAAWTVRAGKKRTLRKNDRKKR (LALLLLAAWTVRAGKKRTLRKNDRKKR-NH2) [compound 4] | – | – | 0.058 | 0.136 | 0.304 |
| LLAAWTARAGKKRTLRKNDRKKR (LLAAWTARAGKKRTLRKNDRKKR-NH2) [compound 29] | 0.051 | 0.434 | – | – | – |
| LLAAWTVRAGKKRTLRKNDRKKR (LLAAWTVRAGKKRTLRKNDRKKR-NH2) [compound 8] | – | – | 0.058 | 0.168 | 0.418 |
| LLLAAWTARAGKKRTLRKNDRKKR (LLLAAWTARAGKKRTLRKNDRKKR-NH2) [compound 28] | 0.051 | 0.532 | – | – | – |
| LLLAAWTVRAGKKRTLRKNDRKKR (LLLAAWTVRAGKKRTLRKNDRKKR-NH2) [compound 7] | – | – | 0.058 | 0.176 | 0.499 |
| LLLLAAWTARAGKKRTLRKNDRKKR (LLLLAAWTARAGKKRTLRKNDRKKR-NH2) [compound 27] | 0.051 | 0.511 | – | – | – |
| LLLLAAWTVRAGKKRTLRKNDRKKR (LLLLAAWTVRAGKKRTLRKNDRKKR-NH2) [compound 6] | – | – | 0.058 | 0.186 | 0.483 |
| MLPGLALGKKRTLRKNDRKKR (MLPGLALGKKRTLRKNDRKKR-NH2) [compound 42] | 0.051 | 0.346 | – | – | – |
| MLPGLALLGKKRTLRKNDRKKR (MLPGLALLGKKRTLRKNDRKKR-NH2) [compound 41] | 0.051 | 0.311 | – | – | – |

| Sequence | OD450 at the start of cultivation [1] | OD450 after 4 days [1] | OD450 at the start of cultivation [2] | OD450 after 2 days [2] | OD450 after 4 days [2] |
| --- | --- | --- | --- | --- | --- |
| MLPGLALLLGKKRTLRKNDRKKR (MLPGLALLLGKKRTLRKNDRKKR-NH2) [compound 40] | 0.051 | 0.487 | – | – | – |
| MLPGLALLLLAAGKKRTLRKNDRKKR (MLPGLALLLLAAGKKRTLRKNDRKKR-NH2) [sample 37] | 0.051 | 0.571 | – | – | – |
| MLPGLALLLLAAWGKKRTLRKNDRKKR (MLPGLALLLLAAWGKKRTLRKNDRKKR-NH2) [compound 36] | 0.051 | 0.288 | – | – | – |
| MLPGLALLLLAAWTAGKKRTLRKNDRKKR (MLPGLALLLLAAWTAGKKRTLRKNDRKKR-NH2) [compound 34] | 0.051 | 0.243 | – | – | – |
| MLPGLALLLLAAWTARAGKKRTLRKNDRKKR (MLPGLALLLLAAWTARAGKKRTLRKNDRKKR-NH2) [sample 22] | 0.051 | 0.241 | – | – | – |
| MLPSLALGKKRTLRKNDRKKR (MLPSLALGKKRTLRKNDRKKR-NH2) [compound 21] | – | – | 0.058 | 0.155 | 0.332 |
| MLPSLALLGKKRTLRKNDRKKR (MLPSLALLGKKRTLRKNDRKKR-NH2) [compound 20] | – | – | 0.058 | 0.158 | 0.320 |
| MLPSLALLLGKKRTLRKNDRKKR (MLPSLALLLGKKRTLRKNDRKKR-NH2) [compound 19] | – | – | 0.058 | 0.163 | 0.478 |
| MLPSLALLLLAAGKKRTLRKNDRKKR (MLPSLALLLLAAGKKRTLRKNDRKKR-NH2) [compound 16] | – | – | 0.058 | 0.172 | 0.525 |
| MLPSLALLLLAAWGKKRTLRKNDRKKR (MLPSLALLLLAAWGKKRTLRKNDRKKR-NH2) [compound 15] | – | – | 0.058 | 0.133 | 0.276 |
| MLPSLALLLLAAWTGKKRTLRKNDRKKR (MLPSLALLLLAAWTGKKRTLRKNDRKKR-NH2) [compound 14] | – | – | 0.058 | 0.132 | 0.293 |
| MLPSLALLLLAAWTVGKKRTLRKNDRKKR (MLPSLALLLLAAWTVGKKRTLRKNDRKKR-NH2) [compound 13] | – | – | 0.058 | 0.123 | 0.232 |
| MLPSLALLLLAAWTVRAGKKRTLRKNDRKKR (MLPSLALLLLAAWTVRAGKKRTLRKNDRKKR-NH2) [sample 1] | – | – | 0.058 | 0.132 | 0.243 |
| MLPSLALLLLAGKKRTLRKNDRKKR (MLPSLALLLLAGKKRTLRKNDRKKR-NH2) [compound 17] | – | – | 0.058 | 0.176 | 0.468 |
| MLPSLALLLLGKKRTLRKNDRKKR (MLPSLALLLLGKKRTLRKNDRKKR-NH2) [compound 18] | – | – | 0.058 | 0.184 | 0.505 |
| PSLALLLLAAWTVRAGKKRTLRKNDRKKR (PSLALLLLAAWTVRAGKKRTLRKNDRKKR-NH2) [sample 2] | – | – | 0.058 | 0.136 | 0.297 |
| SLALLLLAAWTVRAGKKRTLRKNDRKKR (SLALLLLAAWTVRAGKKRTLRKNDRKKR-NH2) [sample 3] | – | – | 0.058 | 0.139 | 0.293 |
| WTVRAGKKRTLRKNDRKKR (WTVRAGKKRTLRKNDRKKR-NH2) [compound 12] | – | – | 0.058 | 0.181 | 0.388 |
